The record followed here is PubChem BioAssay (NCI).

SMILES strings stand for the structures.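 Interpolation was linear, between the two tested concentrations surrounding the appropriate level; five concentrations were tested over 48 hours in 96-well plates. GI50 is the concentration that inhibits growth by half. Definition used: TGI = concentration required for complete inhibition of growth.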 Bounds are passed on as bounds.

Test systems include OVCAR-3 ovarian; SNB-19 CNS; K-562 leukemia; HCT-116 colon; IGROV1 ovarian; M14 melanoma; NCI-H522 lung; 786-0 renal; HL-60(TB) leukemia; HOP-62 NSCLC.
What all share (assay): NCI-60 cell line screen, 48 h

Regarding `C=Cc1cc(OC)c2c(c1)c(=O)oc1c2cc(OC)c2c(O)ccc(C3OC(C(C)O)C(O)C3O)c21` (centres undefined), the GI50 is 15.5 nM in the assay on OVCAR-3 ovarian; 28 nM in the assay on SNB-19 CNS; 3.55 nM with K-562 leukemia; 2.98 nM in the assay with HCT-116 colon; 3.4 nM in the assay with IGROV1 ovarian; 11 nM in the assay on M14 melanoma. Also, the GI50 in the assay with NCI-H522 lung is 4.75 nM; in the assay with 786-0 renal, 3.36 nM; in the assay with HL-60(TB) leukemia, 2.16 nM; with HOP-62 NSCLC it was 9.96 nM. The TGI was found to be 42.3 nM with OVCAR-3 ovarian; 246 nM in the assay on SNB-19 CNS; 126 nM in the assay with K-562 leukemia; 205 nM with HCT-116 colon; 104 nM in the assay on IGROV1 ovarian; 30.2 nM in the assay with M14 melanoma. Also, the TGI in the assay on NCI-H522 lung turned out to be 30 nM; in the assay on 786-0 renal, 19.2 nM; in the assay with HL-60(TB) leukemia, 19.7 nM; in the assay with HOP-62 NSCLC, 59.5 nM.
Regarding `CSc1nc2ccc(C)cc2cc1/C=C1/C=C(c2ccccc2)NC1=O`, the GI50 in the assay with OVCAR-3 ovarian was 1780 nM; with SNB-19 CNS, 4600 nM; with K-562 leukemia, 8830 nM; with HCT-116 colon it was 731 nM; with IGROV1 ovarian it was 2710 nM; with M14 melanoma it was 5420 nM. Also, the GI50 was 3530 nM with NCI-H522 lung, 2000 nM in the assay with 786-0 renal, more than 100000 nM in the assay with HL-60(TB) leukemia and 2420 nM in the assay on HOP-62 NSCLC. Further, the TGI was 15900 nM in the assay with OVCAR-3 ovarian; 33500 nM in the assay on SNB-19 CNS; more than 100000 nM in the assay with K-562 leukemia; 4070 nM in the assay on HCT-116 colon; 24100 nM in the assay on IGROV1 ovarian; 78000 nM in the assay with M14 melanoma. The TGI in the assay on NCI-H522 lung was 42500 nM; with 786-0 renal, 5890 nM; with HL-60(TB) leukemia it was more than 100000 nM; in the assay on HOP-62 NSCLC, 11700 nM.
Regarding `COC(=O)C(C)Oc1ccc(O)cc1` (centres undefined), the TGI is more than 100000 nM with OVCAR-3 ovarian; more than 100000 nM with SNB-19 CNS; more than 100000 nM in the assay with K-562 leukemia; 40300 nM in the assay on HCT-116 colon; more than 100000 nM in the assay on IGROV1 ovarian; more than 100000 nM in the assay with M14 melanoma. The TGI with NCI-H522 lung, in the assay on 786-0 renal, in the assay on HL-60(TB) leukemia and in the assay on HOP-62 NSCLC was more than 100000 nM in each case.
In the case of `C=C(CN1CCN(c2ccc(F)c(Cl)c2)CC1)c1ccc(C(=O)Nc2ccccc2N)cc1`, the GI50 was 6180 nM in the assay with OVCAR-3 ovarian; more than 100000 nM in the assay with SNB-19 CNS; 2410 nM in the assay with K-562 leukemia; 3080 nM in the assay on HCT-116 colon; 1880 nM in the assay on IGROV1 ovarian; 2650 nM in the assay on M14 melanoma. In addition, the GI50 is 1800 nM in the assay on NCI-H522 lung, 2880 nM with 786-0 renal, 1640 nM in the assay on HL-60(TB) leukemia and 3090 nM with HOP-62 NSCLC. Moreover, the TGI with OVCAR-3 ovarian was 58900 nM; in the assay with SNB-19 CNS, more than 100000 nM; with K-562 leukemia it was 14200 nM; in the assay on HCT-116 colon it was 10300 nM; in the assay with IGROV1 ovarian it was 7860 nM; with M14 melanoma, 11600 nM. Moreover, the TGI with NCI-H522 lung was determined as 5330 nM; in the assay with 786-0 renal it was 13400 nM; in the assay on HL-60(TB) leukemia it was 4310 nM; with HOP-62 NSCLC, 16400 nM.
Consider `CC1=C(SCCC(=O)OC(C[Se]C2=C(C)C(=O)c3ccccc3C2=O)C(=O)NC(C)(C)C)C(=O)c2ccccc2C1=O` (centres undefined), for which the GI50 in the assay with OVCAR-3 ovarian is 1430 nM; in the assay with SNB-19 CNS, 867 nM; with K-562 leukemia, 774 nM; in the assay with HCT-116 colon it was 384 nM; with IGROV1 ovarian it was 771 nM; in the assay with M14 melanoma, 1320 nM. Further, the GI50 was 1570 nM with NCI-H522 lung, 1570 nM with 786-0 renal, 680 nM with HL-60(TB) leukemia and 320 nM in the assay with HOP-62 NSCLC. Also, the TGI was 2740 nM in the assay on OVCAR-3 ovarian; 2080 nM in the assay on SNB-19 CNS; 2590 nM with K-562 leukemia; 1440 nM in the assay with HCT-116 colon; 2100 nM in the assay on IGROV1 ovarian; 2670 nM in the assay with M14 melanoma. Also, the TGI with NCI-H522 lung amounted to 3400 nM; in the assay with 786-0 renal, 2910 nM; in the assay with HL-60(TB) leukemia, 2390 nM; in the assay with HOP-62 NSCLC it was 1680 nM.
In the case of `COC(=O)C#CC(N)=O`, the TGI was more than 100000 nM in the assay with OVCAR-3 ovarian; more than 100000 nM with SNB-19 CNS; 60100 nM in the assay with K-562 leukemia; more than 100000 nM with HCT-116 colon; more than 100000 nM with IGROV1 ovarian; 42200 nM in the assay with M14 melanoma. Also, the TGI in the assay on NCI-H522 lung was more than 100000 nM; in the assay with 786-0 renal, more than 100000 nM; in the assay on HL-60(TB) leukemia it was 19800 nM; in the assay with HOP-62 NSCLC, more than 100000 nM.
`CC1(C2CCC3(C)C(C2)C3Sc2ccccc2)OCCO1` (centres undefined): the TGI in the assay with OVCAR-3 ovarian was 30000 nM; in the assay with SNB-19 CNS, 82600 nM; in the assay on K-562 leukemia it was 43700 nM; in the assay with HCT-116 colon, 34000 nM; in the assay with IGROV1 ovarian, more than 100000 nM; in the assay with M14 melanoma it was more than 100000 nM. The TGI came to 40900 nM in the assay with NCI-H522 lung, 33300 nM in the assay on 786-0 renal, 29700 nM in the assay with HL-60(TB) leukemia and 45800 nM in the assay on HOP-62 NSCLC.
Turning to `CN(C)CCOc1ccc2c(c1)C(=O)/C(=C\c1ncc([N+](=O)[O-])n1C)C2`, the GI50 is 359 nM in the assay with OVCAR-3 ovarian; 1150 nM in the assay on SNB-19 CNS; 295 nM with K-562 leukemia; 316 nM in the assay with HCT-116 colon; 147 nM in the assay with IGROV1 ovarian; 543 nM in the assay with M14 melanoma. In addition, the GI50 was 191 nM with NCI-H522 lung, 857 nM in the assay with 786-0 renal, 235 nM with HL-60(TB) leukemia and 1590 nM with HOP-62 NSCLC. Moreover, the TGI came to 1260 nM in the assay with OVCAR-3 ovarian; 3180 nM in the assay with SNB-19 CNS; 1280 nM in the assay on HCT-116 colon; 378 nM in the assay on IGROV1 ovarian; 1830 nM in the assay on M14 melanoma; 492 nM in the assay with NCI-H522 lung. Moreover, the values for the TGI in the assay with 786-0 renal, in the assay with HL-60(TB) leukemia and with HOP-62 NSCLC were 3390 nM, 1090 nM and 4340 nM, respectively.
In the case of `CC(CC(=O)Nc1ccc(NC(=O)CC(C)N=NC(N)=O)cc1)N=NC(N)=O` (centres undefined), the TGI in the assay on OVCAR-3 ovarian, in the assay on SNB-19 CNS, in the assay with K-562 leukemia, in the assay on HCT-116 colon, in the assay on IGROV1 ovarian and with M14 melanoma was more than 100000 nM each time. In addition, the TGI in the assay with NCI-H522 lung, in the assay on 786-0 renal, in the assay on HL-60(TB) leukemia and with HOP-62 NSCLC was more than 100000 nM in each case.
